Consider 5 compounds from EP0052909A1, “Derivative of alfa-mercaptopropionilglicine having therapeutical activity, process for its preparation and related pharmaceutical compositions” (Real S.a.s. di Alberto Reiner & C., priority 1980, dated 1982).

Broadly, the LD50 is the dose expected to kill half of the subjects tested. Low values mean a more toxic substance, high ones a less toxic substance. As a reminder, the mortality is the share of the test organisms that died.

The structures appear in SMILES notation. Counter-ions that a name gives are not always drawn.

A short description of data set [1]: Solubility in water. It is filed as physicochemical.
Data set [2] is described as follows: Acute toxicity by oral route in the rat. Format: in vivo. To be noted: rat, in vivo, rat, evaluated ten days after administration. The protocol:
(§1) Sprague-Dawley albine rats having an average weight of 120 + 5 g and of both sexes were used.
(§2) For each compound 40 rats were treated. The test compound as a suspension in 5% arabic gum was administered through a gastric probe.
(§3) The results were evaluated ten days after the administration.

Data set [3] deals with Sprague-Dawley albine rats. Description: Acute toxicity by oral route in the rat. Format: in vivo. The settings on record: evaluated ten days after administration. The protocol: as §1, §2, §3
In data set [4] the test system is rats of male sex, of the Sprague-Dawley strain. Description: Anti-inflammatory activity in the kaolin test. It is filed as in vivo. To be noted: rat, 10% suspension of kaolin, diameter of the articulation. The protocol: (§4) The tests used for the evaluation of the anti-inflammatory activity were respectively that of the kaolin and that of the egg white.
a) Anti-inflammatory activity in the kaolin test. For each compound 16 rats of male sex, of the Sprague-Dawley strain and of 200-250 g of body weight, were used. The rats were divided into four groups each comprising four rats. All the animals were injected with a 10% suspension of kaolin. The first group was used as the control, whereas the other three groups were administered with doses respectively of 50,75 and 100 mg/Kg. The measurements of the diameters of the articulation were effected one hour after the kaolin injection and then every 24 hours.
The inoculation of kaolin caused an increase of the tibio-tarsal articulation which has been partially limited by the treatment with the test compound.

In data set [5] the test system is male rats, of the Sprague-Dawley strain. The experiment in a line: Anti-inflammatory activity in the egg white test. It is filed as in vivo, rat. To be noted: two oral doses of 100 mg/Kg with a 30 minute interval, 0,1 ml of egg white in the rear paw, measured 3 and 4 hours later. As to the method:
as §4
For each compound 16 male rats, of the Sprague-Dawley strain and weighing 300 g, were used. The animals were divided- in four groups each comprising four rats. The first group served as a control, whereas the other three groups were orally administered, with a 30 minute interval, with two doses of 50,75 and 100 mg/Kg of the test compound.
The last administration was immediately followed by the inoculation of 0,1 ml of egg white in the rear paw of all the animals, including the controls. The measurements of the diameters of the articulations were effected 3 and 4 hours later.

Data set [6] concerns female rats. Description: Test for possible teratogenic action. To be noted: 50 mg/Kg from the beginning up to the 19-20 day of gestation. Format: in vivo, rat. The protocol:
The subject compound was also tested with respect to a possible teratogenic action, by administering to female rats a dose of 50 mg/Kg from the beginning up to the 19-20 day of gestation.

Where [7] appears, read: TREATMENT 900 (900 mg/Kg elsewhere in the source), oral by gastric probe.

Regarding `CC(C)Cc1ccc(C(C)C(=O)SC(C)C(=O)NCC(=O)O)cc1` (stereo not shown) [calcium salt], the solubility in water result in data set [1] is “insoluble”.

For the compound `CC(C)Cc1ccc(C(C)C(=O)SC(C)C(=O)NCC(=O)O)cc1` (stereo not shown) [magnesium salt], the solubility in water result in data set [1] is recorded as “insoluble”.

As to `CC(C)Cc1ccc(C(C)C(=O)SC(C)C(=O)NCC(=O)O)cc1` (stereo not shown) [potassium salt], the solubility in water entry in data set [1] is “highly soluble in water”.

For the compound `CC(C)Cc1ccc(C(C)C(=O)SC(C)C(=O)NCC(=O)O)cc1` (stereo not shown) [sodium salt], the solubility in water entry in data set [1] was “highly soluble in water”.

Compound `CC(C)Cc1ccc(C(C)C(=O)SC(C)C(=O)NCC(=O)O)cc1` (stereo not shown) [test compound] came in with an LD50 at 240 h in data set [2] (po) above 900 mg/kg. Besides, the mortality at 240 h in data set [2] (setting [7]) came to 0%. Further, the dead/living in data set [3] (TREATMENT 150 (dose unit not given), oral by gastric probe, suspension in 5% arabic gum) is 0/8; in data set [3] (TREATMENT 300, oral by gastric probe), 0/8; in data set [3] (TREATMENT 450, oral by gastric probe), 0/8; in data set [3] (TREATMENT 600, oral by gastric probe), 0/8; in data set [3] (setting [7]), 0/8. Also, the “ANTI-INFLAMMATORY ACTIVITY %” value came out at 10% in data set [4] (75 mg/kg), 26% in data set [4] (100 mg/kg) and 26% in data set [5]. The “reabsorption number and the foeti in the treated rats with respect to the controls” value in data set [6] was “no significant difference”. Further, in data set [6], the “weight of the foeti” value was “did not revealed whatsoever anomaly”.
